Reference: patent publication US10766903B2 (ALMAC DISCOVERY LIMITED, priority 2016, dated 2020)

Molecular target: USP7 (Homo sapiens (Human), UniProt Q93009)
Experiment: USP7 fluorescence polarisation (FP) biochemical assay, ubiquitin-Lys-TAMRA substrate
Details: Table 4, biochemical assay; average of at least duplicate experiments; read-out: USP7 IC50
Procedure: Measurement of USP7 Inhibitory Activity
USP7 activity was monitored in a fluorescence polarisation (FP) homogeneous assay using the isopeptide ubiquitin-Lys-TAMRA substrate (U-558, Boston Biochem). Full-length USP7 was purchased from Boston Biochem (His6-USP7FL, E-519). Unless otherwise stated, all other reagents were purchased from Sigma-Aldrich. Enzymatic reactions were conducted in black flat-bottom polystyrene 384-well plates (Nunc) and 15 μL total volume. USP7 (2.5 nM, 5 μL) was incubated in assay buffer (50 mM HEPES (pH 7.2), 150 mM NaCl, 0.5 mM EDTA, 5 mM DTT, 0.05% BSA (w/v), 0.05% CHAPS) in the presence or absence of inhibitor (5 μl). Inhibitors were stored as 10 mM DMSO stocks in an inert environment (low humidity, dark, low oxygen, room temperature) using a Storage Pod System and serial dilutions were prepared in buffer just prior to the assay (from 200 to 0.1 μM, 8 dp curve). […] FP was measured every 15 min over a period of 1.5 h (within the linear range of the assay) using a Synergy 4 plate reader (BioTek) exciting at 530 nm and measuring the amount of parallel and perpendicular light at 575 nm. The FP signal was subsequently normalised to the control without compound present.

USP7, sequence (Q93009 whole entry): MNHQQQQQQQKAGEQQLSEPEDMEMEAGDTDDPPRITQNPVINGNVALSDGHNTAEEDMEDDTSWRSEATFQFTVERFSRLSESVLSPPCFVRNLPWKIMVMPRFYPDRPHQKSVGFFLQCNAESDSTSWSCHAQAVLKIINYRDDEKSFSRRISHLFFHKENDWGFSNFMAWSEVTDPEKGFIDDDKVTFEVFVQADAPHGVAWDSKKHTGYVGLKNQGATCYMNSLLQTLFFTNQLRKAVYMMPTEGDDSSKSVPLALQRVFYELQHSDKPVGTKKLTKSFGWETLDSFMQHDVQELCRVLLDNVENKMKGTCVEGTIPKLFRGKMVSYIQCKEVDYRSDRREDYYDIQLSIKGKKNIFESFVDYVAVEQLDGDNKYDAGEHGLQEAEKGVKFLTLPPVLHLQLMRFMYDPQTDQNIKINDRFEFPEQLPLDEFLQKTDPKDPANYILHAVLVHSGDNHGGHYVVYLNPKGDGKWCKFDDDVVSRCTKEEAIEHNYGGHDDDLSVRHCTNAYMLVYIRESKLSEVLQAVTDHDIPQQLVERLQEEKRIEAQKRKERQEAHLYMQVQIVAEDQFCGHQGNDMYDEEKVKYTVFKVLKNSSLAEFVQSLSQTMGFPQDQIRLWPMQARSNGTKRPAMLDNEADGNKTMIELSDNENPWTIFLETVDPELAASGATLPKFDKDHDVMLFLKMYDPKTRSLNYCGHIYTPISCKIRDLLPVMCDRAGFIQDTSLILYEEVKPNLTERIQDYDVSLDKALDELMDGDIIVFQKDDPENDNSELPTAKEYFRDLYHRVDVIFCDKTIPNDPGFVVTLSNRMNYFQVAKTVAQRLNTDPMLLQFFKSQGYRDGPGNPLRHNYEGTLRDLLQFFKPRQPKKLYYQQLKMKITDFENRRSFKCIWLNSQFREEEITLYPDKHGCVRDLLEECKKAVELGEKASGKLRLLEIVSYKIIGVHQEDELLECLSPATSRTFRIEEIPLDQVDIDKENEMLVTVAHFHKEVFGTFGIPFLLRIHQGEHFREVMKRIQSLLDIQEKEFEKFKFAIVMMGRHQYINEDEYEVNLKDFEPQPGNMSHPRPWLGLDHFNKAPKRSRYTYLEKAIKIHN

Structure (SMILES) | IC50 [nM]
Cn1nc2c(=O)n(CC3(O)CCN(C(=O)C[C@H](c4ccccc4)C(F)(F)F)CC3)cnc2c1-c1ccc(CN)c(F)c1 [Example 82, (R)-3-(4-(Aminomethyl)-3-fluorophenyl)-6-((4-hydroxy-1-(4,4,4-trifluoro-3-phenylbutanoyl)piperidin-4-yl)methyl)-2-methyl-2H-pyrazolo[4,3-d]pyrimidin-7(6H)-one] | < 250
C[C@H](CC(=O)N1CCC(O)(Cn2cnc(N3CCC4(CCOC4)C3)cc2=O)CC1)c1ccccc1 (stereo partly drawn) [Example 152, 3-((4-hydroxy-1-((R)-3-phenylbutanoyl)piperidin-4-yl)methyl)-6-(2-oxa-7-azaspiro[4.4]nonan-7-yl)pyrimidin-4(3H)-one] | 1000 to 200000
NCc1ccc(-n2cnc3c(=O)n(CC4(O)CCN(C(=O)C[C@H](c5ccccc5)C(F)(F)F)CC4)cnc32)cc1 [Example 77, (R)-9-(4-(Aminomethyl)phenyl)-1-((4-hydroxy-1-(4,4,4-trifluoro-3-phenylbutanoyl)piperidin-4-yl)methyl)-1H-purin-6(9H)-one] | < 250
C[C@H]1CCN(CCNc2cc(=O)n(CC3(O)CCN(C(=O)C[C@@H](C)c4ccccc4)CC3)cn2)C1 [Example 71, 3-((4-Hydroxy-1-((R)-3-phenylbutanoyl)piperidin-4-yl)methyl)-6-((2-((S)-3-methylpyrrolidin-1-yl)ethyl)amino)pyrimidin-4(3H)-one, Formic Acid] | < 250
Cn1nc2c(=O)n(CC3(O)CCN(C(=O)C[C@H](c4ccccc4)C(F)(F)F)CC3)cnc2c1-c1ccc(CN2CCOCC2)cc1 [Example 137, (R)-6-((4-Hydroxy-1-(4,4,4-trifluoro-3-phenylbutanoyl)piperidin-4-yl)methyl)-2-methyl-3-(4-(morpholinomethyl)phenyl)-2H-pyrazolo[4,3-d]pyrimidin-7(6H)-one] | < 250
C[C@H](CC(=O)N1CCC(O)(Cn2cnc3c(-c4ccc(C5(N)CCC5)cc4)n(C)nc3c2=O)CC1)c1ccccc1 [Example 182, (R)-3-(4-(1-Aminocyclobutyl)phenyl)-6-((4-hydroxy-1-(3-phenylbutanoyl)piperidin-4-yl)methyl)-2-methyl-2H-pyrazolo[4,3-d]pyrimidin-7(6H)-one] | < 250
C[C@H](CC(=O)N1CCC(O)(Cn2cnc(Cl)c(N)c2=O)CC1)c1ccccc1 [Example 14, (R)-5-Amino-6-chloro-3-((4-hydroxy-1-(3-phenylbutanoyl)piperidin-4-yl)methyl)pyrimidin-4(3H)-one] | 1000 to 200000
Cn1nc2c(=O)n(CC3(O)CCN(C(=O)C[C@H](c4ccc(F)cc4)C(F)(F)F)CC3)cnc2c1-c1ccc(CN)cc1 [Example 85, (R)-3-(4-(Aminomethyl)phenyl)-6-((4-hydroxy-1-(4,4,4-trifluoro-3-(4-fluorophenyl)butanoyl)piperidin-4-yl)methyl)-2-methyl-2H-pyrazolo[4,3-d]pyrimidin-7(6H)-one] | < 250
COc1cc(-n2c(Cl)cc3c(=O)n(CC4(O)CCN(C(=O)c5cnc(C6CC6)o5)CC4)cnc32)ccc1F [Example 206, 6-Chloro-3-((1-(2-cyclopropyloxazole-5-carbonyl)-4-hydroxypiperidin-4-yl)methyl)-7-(4-fluoro-3-methoxyphenyl)-3H-pyrrolo[2,3-d]pyrimidin-4(7H)-one] | < 250
COC[C@H]1CCCN1CCNc1cc(=O)n(CC2(O)CCN(C(=O)C[C@@H](C)c3ccccc3)CC2)cn1 [Example 70, 3-((4-Hydroxy-1-((R)-3-phenylbutanoyl)piperidin-4-yl)methyl)-6-((2-((R)-2-(methoxymethyl)pyrrolidin-1-yl)ethyl)amino)pyrimidin-4(3H)-one] | 1000 to 200000
C[C@H](CC(=O)N1CCC(O)(Cn2cnc(N3CC4(CCCO4)C3)cc2=O)CC1)c1ccccc1 [Example 169, (R)-3-((4-hydroxy-1-(3-phenylbutanoyl)piperidin-4-yl)methyl)-6-(5-oxa-2-azaspiro[3.4]octan-2-yl)pyrimidin-4(3H)-one] | 1000 to 200000
O=C(C[C@H](c1ccccc1)C(F)F)N1CCC(O)(Cn2cnc3c(ncn3-c3ccccc3)c2=O)CC1 [Example 129, (R)-1-((1-(4,4-Difluoro-3-phenylbutanoyl)-4-hydroxypiperidin-4-yl)methyl)-9-phenyl-1H-purin-6(9H)-one] | < 250
C[C@H](CC(=O)N1CCC(O)(Cn2cnc3c(-c4ccc(C(=O)O)cc4)n(C)nc3c2=O)CC1)c1ccccc1 [Example 243, (R)-4-(6-((4-Hydroxy-1-(3-phenylbutanoyl)piperidin-4-yl)methyl)-2-methyl-7-oxo-6,7-dihydro-2H-pyrazolo[4,3-d]pyrimidin-3-yl)benzoic Acid] | 1000 to 200000
C[C@H](CC(=O)N1CCC(O)(Cn2cnc(N3CCC(N4CCOCC4)C3)cc2=O)CC1)c1ccccc1 (stereo partly drawn) [Example 149, 3-((4-hydroxy-1-((R)-3-phenylbutanoyl)piperidin-4-yl)methyl)-6-(3-morpholinopyrrolidin-1-yl)pyrimidin-4(3H)-one] | 1000 to 200000
C[C@H](CC(=O)N1CCC(O)(Cn2cnc3c(nnn3-c3ccccc3)c2=O)CC1)c1ccccc1 [Example 185, (R)-6-((4-Hydroxy-1-(3-phenylbutanoyl)piperidin-4-yl)methyl)-3-phenyl-3H-[1,2,3]triazolo[4,5-d]pyrimidin-7(6H)-one] | < 250
CCn1nc2c(=O)n(CC3(O)CCN(C(=O)C[C@H](c4ccccc4)C(F)(F)F)CC3)cnc2c1-c1ccc(CN)cc1 [Example 120] | < 250
C[C@H](CC(=O)N1CCC(O)(Cn2cnc3c(C#CCO)n(C)nc3c2=O)CC1)c1ccccc1 [Example 31, (R)-6-((4-Hydroxy-1-(3-phenylbutanoyl)piperidin-4-yl)methyl)-3-(3-hydroxyprop-1-yn-1-yl)-2-methyl-2H-pyrazolo[4,3-d]pyrimidin-7(6H)-one] | < 250
C[C@H](CC(=O)N1CCC(O)(Cn2cnc(N[C@@H]3CCCC[C@@H]3N)cc2=O)CC1)c1ccccc1 (racemic) [Example 64, 6-(((±-cis-1,2)-2-Aminocyclohexyl)amino)-3-((4-hydroxy-1-((R)-3-phenylbutanoyl)piperidin-4-yl)methyl)pyrimidin-4(3H)-one, Formic Acid] | 250 to 999
CC1(C(=O)N2CCC(O)(Cn3cnc4c(cc(Cl)n4-c4ccc(C5CC5)cc4)c3=O)CC2)CC1 [Example 220, 6-Chloro-7-(4-cyclopropylphenyl)-3-((4-hydroxy-1-(1-methylcyclopropanecarbonyl)piperidin-4-yl)methyl)-3H-pyrrolo[2,3-d]pyrimidin-4(7H)-one] | < 250
O=C(c1cnc(C2CC2)o1)N1CCC(O)(Cn2cnc3c(cc(Cl)n3-c3cccc(Br)c3)c2=O)CC1 [Example 213, 7-(3-Bromophenyl)-6-chloro-3-((1-(2-cyclopropyloxazole-5-carbonyl)-4-hydroxypiperidin-4-yl)methyl)-3H-pyrrolo[2,3-d]pyrimidin-4(7H)-one] | < 250

Same assay, conditions: USP7 IC50, Table 4, biochemical assay; average of at least duplicate experiments

Structure (SMILES) | IC50 [nM]
O=C(C[C@H](c1ccccc1)C(F)F)N1CCC(O)(Cn2cnc(NCCN3CCCC3)cc2=O)CC1 [Example 89, (R)-3-((1-(4,4-Difluoro-3-phenylbutanoyl)-4-hydroxypiperidin-4-yl)methyl)-6-((2-(pyrrolidin-1-yl)ethyl)amino)pyrimidin-4(3H)-one, Formic Acid] | 250 to 999
